Legend:
C57BL/6 mice [1] = test: In vivo expression level of Luciferase-mRNA delivered by intramuscular injection (bioluminescence imaging); settings: mRNA-loaded nanoparticles, intramuscular (leg muscle), 5 μg Luciferase-mRNA, 6 hours
Experimental: Luciferase-mRNA was used as an mRNA model; and the cationic lipid analogues of Examples 1-5 were used to prepare drug-loaded nanoparticles according to the method of Example 6.
100 μL of nanoparticles containing 5 μg Luciferase-mRNA or the drug-loaded nanoparticles prepared above were injected into the leg muscles of 6-8 week-old C57BL/6 mice, and 200 μL of 1×PBS solution containing 3 mg D-Luciferin potassium salt was intraperitoneally injected into the mice 6 hours later. After waiting for 10 minutes, an in vivo expression level of the mRNA was evaluated by bioluminescence imaging.

C57BL/6 mice [2] = test: In vivo expression level of Luciferase-mRNA delivered by intravenous injection (bioluminescence imaging); settings: mRNA-loaded nanoparticles, intravenous (tail vein), 5 μg Luciferase-mRNA, 6 hours
Summary of the method: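 Lipid nanoparticles carrying 5 μg Luciferase-mRNA given by tail-vein injection to 6-8-week-old C57BL/6 mice. At 6 h, 3 mg D-luciferin i.p. in PBS; bioluminescence imaged 10 min later as the expression read-out.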

Row | Structure (SMILES) | Local fluorescence intensity (C57BL/6 mice [1]; compounds of Example 3) | Fluorescence intensity of spleen (C57BL/6 mice [2]; compounds of Example 3) | further results
1 | CCCCCCCCCCSSCCC(=O)N(C1CCCCCC1)C(C(=O)NCCN(CCNC(=O)C(C(C)C)N(C(=O)CCSSCCCCCCCCCC)C1CCCCCC1)CCNC(=O)C(C(C)C)N(C(=O)CCSSCCCCCCCCCC)C1CCCCCC1)C(C)C (stereo not shown) [A1I5R26S15] | 9.90E+05 | 1.30E+05 | 
2 | CCCCCCCCCCSSCCC(=O)N(CCCCCO)C(C(=O)NCCN(CCNC(=O)C(C(C)C)N(CCCCCO)C(=O)CCSSCCCCCCCCCC)CCNC(=O)C(C(C)C)N(CCCCCO)C(=O)CCSSCCCCCCCCCC)C(C)C (stereo not shown) [A1I5R27S15] | 3.57E+05 | 7.96E+05 | 
3 | CCCCCCCCCCSSCCC(=O)N(CCCCCCO)C(C(=O)NCCN(CCNC(=O)C(C(C)C)N(CCCCCCO)C(=O)CCSSCCCCCCCCCC)CCNC(=O)C(C(C)C)N(CCCCCCO)C(=O)CCSSCCCCCCCCCC)C(C)C (stereo not shown) [A1I5R28S15] | 6.01E+05 | 3.31E+06 | 
4 | CCCCCCCCCCSSCCC(=O)N(C(C(=O)NCCN(CCNC(=O)C(C(C)C)N(C(=O)CCSSCCCCCCCCCC)C(C)(CO)CO)CCNC(=O)C(C(C)C)N(C(=O)CCSSCCCCCCCCCC)C(C)(CO)CO)C(C)C)C(C)(CO)CO (stereo not shown) [A1I5R29S15] | 7.63E+04 | 3.13E+05 | 
5 | CCCCCCCCCCSSCCC(=O)N(C(C(=O)NCCN(CCNC(=O)C(C(C)C)N(C(=O)CCSSCCCCCCCCCC)C(CO)(CO)CO)CCNC(=O)C(C(C)C)N(C(=O)CCSSCCCCCCCCCC)C(CO)(CO)CO)C(C)C)C(CO)(CO)CO (stereo not shown) [A1I5R30S15] | 7.77E+04 | 6.31E+04 | 
6 | CCCCCCCCCCSSCCC(=O)N(CCCOCC)C(C(=O)NCCN(CCNC(=O)C(C(C)C)N(CCCOCC)C(=O)CCSSCCCCCCCCCC)CCNC(=O)C(C(C)C)N(CCCOCC)C(=O)CCSSCCCCCCCCCC)C(C)C (stereo not shown) [A1I5R31S15] | 2.94E+06 | 6.13E+05 | 
7 | CCCCCCCCCCSSCCC(=O)N(CCCOC(C)C)C(C(=O)NCCN(CCNC(=O)C(C(C)C)N(CCCOC(C)C)C(=O)CCSSCCCCCCCCCC)CCNC(=O)C(C(C)C)N(CCCOC(C)C)C(=O)CCSSCCCCCCCCCC)C(C)C (stereo not shown) [A1I5R32S15] | 1.18E+06 | 2.48E+05 | 
8 | CCCCCCCCCCSSCCC(=O)N(C(CC)COC)C(C(=O)NCCN(CCNC(=O)C(C(C)C)N(C(=O)CCSSCCCCCCCCCC)C(CC)COC)CCNC(=O)C(C(C)C)N(C(=O)CCSSCCCCCCCCCC)C(CC)COC)C(C)C (stereo not shown) [A1I5R33S15] | 1.52E+06 | 2.33E+05 | 
9 | CCCCCCCCCCSSCCC(=O)N(CC(OC)OC)C(C(=O)NCCN(CCNC(=O)C(C(C)C)N(CC(OC)OC)C(=O)CCSSCCCCCCCCCC)CCNC(=O)C(C(C)C)N(CC(OC)OC)C(=O)CCSSCCCCCCCCCC)C(C)C (stereo not shown) [A1I5R34S15] | 1.24E+06 | 2.84E+05 | 
10 | CCCCCCCCCCSSCCC(=O)N(CC1CCCO1)C(C(=O)NCCN(CCNC(=O)C(C(C)C)N(CC1CCCO1)C(=O)CCSSCCCCCCCCCC)CCNC(=O)C(C(C)C)N(CC1CCCO1)C(=O)CCSSCCCCCCCCCC)C(C)C (stereo not shown) [A1I5R35S15] | 2.62E+06 | 3.21E+05 | 
11 | CCCCCCCCCCSSCCC(=O)N(CCOCCO)C(C(=O)NCCN(CCNC(=O)C(C(C)C)N(CCOCCO)C(=O)CCSSCCCCCCCCCC)CCNC(=O)C(C(C)C)N(CCOCCO)C(=O)CCSSCCCCCCCCCC)C(C)C (stereo not shown) [A1I5R36S15] | 8.27E+04 | 3.27E+06 | 
12 | CCCCCCCCCCSSCCC(=O)N(CC(=O)OCC)C(C(=O)NCCN(CCNC(=O)C(C(C)C)N(CC(=O)OCC)C(=O)CCSSCCCCCCCCCC)CCNC(=O)C(C(C)C)N(CC(=O)OCC)C(=O)CCSSCCCCCCCCCC)C(C)C (stereo not shown) [A1I5R37S15] | 1.26E+06 | 1.61E+05 | 
13 | CCCCCCCCCCSSCCC(=O)N(CCCC(=O)OC)C(C(=O)NCCN(CCNC(=O)C(C(C)C)N(CCCC(=O)OC)C(=O)CCSSCCCCCCCCCC)CCNC(=O)C(C(C)C)N(CCCC(=O)OC)C(=O)CCSSCCCCCCCCCC)C(C)C (stereo not shown) [A1I5R38S15] | 4.72E+04 | 1.14E+05 | 
14 | CCCCCCCCCCSSCCC(=O)N(CCCC(=O)OCC)C(C(=O)NCCN(CCNC(=O)C(C(C)C)N(CCCC(=O)OCC)C(=O)CCSSCCCCCCCCCC)CCNC(=O)C(C(C)C)N(CCCC(=O)OCC)C(=O)CCSSCCCCCCCCCC)C(C)C (stereo not shown) [A1I5R39S15] | 2.15E+04 | 3.88E+04 | 
15 | CCCCCCCCCCSSCCC(=O)N(C(C)C(=O)OC)C(C(=O)NCCN(CCNC(=O)C(C(C)C)N(C(=O)CCSSCCCCCCCCCC)C(C)C(=O)OC)CCNC(=O)C(C(C)C)N(C(=O)CCSSCCCCCCCCCC)C(C)C(=O)OC)C(C)C (stereo not shown) [A1I5R40S15] | 3.86E+05 | 1.39E+04 | 
16 | CCCCCCCCCCSSCCC(=O)N(CS(=O)(=O)O)C(C(=O)NCCN(CCNC(=O)C(C(C)C)N(CS(=O)(=O)O)C(=O)CCSSCCCCCCCCCC)CCNC(=O)C(C(C)C)N(CS(=O)(=O)O)C(=O)CCSSCCCCCCCCCC)C(C)C (stereo not shown) [A1I5R41S15] | 1.81E+05 | 4.22E+05 | 
17 | CCCCCCCCCCCCNC(=O)C(C(C)C)N(CCN(CCN(C(=O)CO)C(C(=O)NCCCCCCCCCCCC)C(C)C)CCN(C(=O)CO)C(C(=O)NCCCCCCCCCCCC)C(C)C)C(=O)CO (stereo not shown) [A1I12R47C21] |  |  | Local fluorescence intensity (C57BL/6 mice [1]; compounds of Example 5): 2.22E+05; Fluorescence intensity of spleen (C57BL/6 mice [2]; compounds of Example 5): 3.10E+05
18 | CCCCC/C=C\C/C=C\CCCCCCCC(=O)N(CCCN(C)C)C(C(=O)NCCCCCCCCCCCCCCCCCC)C(C)C (stereo not shown) [A1I18R2C18-2] |  |  | Local fluorescence intensity (C57BL/6 mice [1]; compounds of Example 1): 7.88E+04; Fluorescence intensity of liver (C57BL/6 mice [2]; compounds of Example 1): 5.42E+04
19 | CCCCCCCCCCCCCCCCCCNC(=O)C(C(C)C)N(CCCN(C)C)C(=O)CCCCCCCCCCCCCCCCC (stereo not shown) [A1I18R2C18] |  |  | Local fluorescence intensity (C57BL/6 mice [1]; compounds of Example 1): 1.36E+05; Fluorescence intensity of liver (C57BL/6 mice [2]; compounds of Example 1): 2.26E+04
20 | CCCCC/C=C\C/C=C\CCCCCCCC(=O)N(CCCN1CCOCC1)C(C(=O)NCCCCCCCCCCCCCCCCCC)C(C)C (stereo not shown) [A1I18R5C18-2] |  |  | Local fluorescence intensity (C57BL/6 mice [1]; compounds of Example 1): 8.15E+04; Fluorescence intensity of liver (C57BL/6 mice [2]; compounds of Example 1): 3.77E+03
21 | CCCCCCCCCCCCCCCCCCNC(=O)C(C(C)C)N(CCCN1CCOCC1)C(=O)CCCCCCCCCCCCCCCCC (stereo not shown) [A1I18R5C18] |  |  | Local fluorescence intensity (C57BL/6 mice [1]; compounds of Example 1): 5.25E+04; Fluorescence intensity of liver (C57BL/6 mice [2]; compounds of Example 1): 1.16E+03
22 | CCCCC/C=C\C/C=C\CCCCCCCC(=O)N(CCN1CCCCC1)C(C(=O)NCCCCCCCCCCCCCCCCCC)C(C)C (stereo not shown) [A1I18R12C18-2] |  |  | Local fluorescence intensity (C57BL/6 mice [1]; compounds of Example 1): 3.38E+06; Fluorescence intensity of liver (C57BL/6 mice [2]; compounds of Example 1): 1.41E+03
23 | CCCCCCCCCCCCCCCCCCNC(=O)C(C(C)C)N(CCN1CCCCC1)C(=O)CCCCCCCCCCCCCCCCC (stereo not shown) [A1I18R12C18] |  |  | Local fluorescence intensity (C57BL/6 mice [1]; compounds of Example 1): 4.37E+04; Bioluminescence intensity (C57BL/6 mice [2]; compounds of Example 1): 9.34E+02
24 | CCCCC/C=C\C/C=C\CCCCCCCC(=O)N(CCN(CCN(C(=O)CCCCCCC/C=C\C/C=C\CCCCC)C(C(=O)NCCOC)C(C)C)CCN(C(=O)CCCCCCC/C=C\C/C=C\CCCCC)C(C(=O)NCCOC)C(C)C)C(C(=O)NCCOC)C(C)C (stereo not shown) [A1I31R47C18-2] |  |  | Local fluorescence intensity (C57BL/6 mice [1]; compounds of Example 5): 2.24E+05; Fluorescence intensity of spleen (C57BL/6 mice [2]; compounds of Example 5): 6.90E+04
25 | CCCCCCCC/C=C\CCCCCCCC(=O)N(CCO)C(C(=O)NCCN(C)CCNC(=O)C(C(CC)CCCC)N(CCO)C(=O)CCCCCCC/C=C\CCCCCCCC)C(CC)CCCC (stereo not shown) [A4I4R22C18-1] |  |  | Local fluorescence intensity (C57BL/6 mice [1]; compounds of Example 2): 5.47E+05; Fluorescence intensity of spleen (C57BL/6 mice [2]; compounds of Example 2): 6.82E+05
26 | CCCCC/C=C\C/C=C\CCCCCCCC(=O)N(CCO)C(C(=O)NCCN(C)CCNC(=O)C(C(CC)CCCC)N(CCO)C(=O)CCCCCCC/C=C\C/C=C\CCCCC)C(CC)CCCC (stereo not shown) [A4I4R22C18-2] |  |  | Local fluorescence intensity (C57BL/6 mice [1]; compounds of Example 2): 4.66E+05; Fluorescence intensity of spleen (C57BL/6 mice [2]; compounds of Example 2): 2.61E+05
27 | CCCCCCCCCCCCCCCCCC(=O)N(CCO)C(C(=O)NCCN(C)CCNC(=O)C(C(CC)CCCC)N(CCO)C(=O)CCCCCCCCCCCCCCCCC)C(CC)CCCC (stereo not shown) [A4I4R22C18] |  |  | Local fluorescence intensity (C57BL/6 mice [1]; compounds of Example 2): 5.53E+05; Fluorescence intensity of spleen (C57BL/6 mice [2]; compounds of Example 2): 5.51E+05
28 | CCCCC/C=C\C/C=C\CCCCCCCC(=O)N(CCOC)C(C(=O)NCCN(C)CCNC(=O)C(C(CC)CCCC)N(CCOC)C(=O)CCCCCCC/C=C\C/C=C\CCCCC)C(CC)CCCC (stereo not shown) [A4I4R23C18-2] |  |  | Local fluorescence intensity (C57BL/6 mice [1]; compounds of Example 2): 1.93E+04; Fluorescence intensity of spleen (C57BL/6 mice [2]; compounds of Example 2): 4.96E+05
29 | CCCCCCCCCCCCCCCCCC(=O)N(CCOC)C(C(=O)NCCN(C)CCNC(=O)C(C(CC)CCCC)N(CCOC)C(=O)CCCCCCCCCCCCCCCCC)C(CC)CCCC (stereo not shown) [A4I4R23C18] |  |  | Local fluorescence intensity (C57BL/6 mice [1]; compounds of Example 2): 6.36E+04; Fluorescence intensity of spleen (C57BL/6 mice [2]; compounds of Example 2): 2.16E+05

— patent US20250161216A1, “CATIONIC LIPID ANALOGUES, COMPOSITIONS AND USES THEREOF” (GUANGZHOU LIDE BIOMEDICINE TECHNOLOGY CO., LTD., priority 2022, published 2025)
